# Measurements published in patent US20200064357A1, “METHODS FOR DETERMINING AND MONITORING GASTROINTESTINAL INFLAMMATION” (Protagonist Therapeutics, Inc., priority 2016, published 2020).
# Experiments:
# Sprague-Dawley rats [1] = test: Biomarker gene expression in distal colon, TNBS rat colitis model, quantitative real time PCR (Example E3); type: in vivo; settings: 31 mg/kg/day, normalized to HPRT1, vs vehicle group
# Method: Animals from the sham group (without TNBS exposure), the vehicle group (exposed to TNBS and treated with vehicle only) and the group treated with Peptide 993 (exposed to TNBS and treated with Peptide 993 at 31 mg/kg/day) were subjected for gene expression and miroRNA analysis
# For extraction of total RNA from the distal colons, tissue samples stored at −20° C. in the buffer RNAlater, were thawed and homogenized in RLTplus Buffer (Qiagen) at 20× volume:wt, then subsequently purified using the RNeasy Plus Mini Kit (Qiagen). The concentration of the total RNA was measured and the quality of the RNAs was verified on a gel. The total RNA was used in QuantiTect Reverse Transcription Kit (Qiagen) to obtain cDNA templates for the quantative real time PCR. The expression of the genes LCN2 (Lipocalin 2), S100A8 (a subunit of calprotectin) and CLDN8 (Claudin 8 of the claudin family of tight junction proteins) were measured using Taqman and TaqMan Fast Advanced Master Mix (Applied Biosystems). The threshold cycle number (Ct) values, that are indicative of abundance of template, were normalized using the endogenous control gene HPRT1. The Relative expression of each gene was calculated using the normalized Ct values. Statistical analysis of relative expression was performed using One-way ANOVA method (with Dunnett's multiple comparisons) to compare the variations Vs Group 2.
# Sprague-Dawley rats [2] = test: Biomarkers in colon of TNBS-induced acute colitis rats (Example E1); type: in vivo, rat
# Text: The effect of treatment with peptide inhibitors of IL23R on inflammatory markers associated with IL23 signaling was examined in a rat model of acute colitis. Acute colitis was induced in Sprague-Dawley rats by a single intra-rectal instillation of 2,4,6-Trinitrobenzenesulfonic acid (TNBS) followed by efficacy analysis at day seven. Pharmacodynamic (PD) biomarkers were examined using enzyme-linked immunosorbent assay (ELISA), quantitative reverse transcription polymerase chain reaction, or immunohistochemistry analysis of colon, feces, or serum samples obtained from colitic rats treated with Peptide 993, Peptide 1185, or Peptide 980.
# Acute colitis was induced by providing 7-week-old female Sprague-Dawley rats with various dosages of 64 mg/kg or 48 mg/kg of TNBS in 50% ethanol (TNBS/ethanol) administered intrarectally at Day 0. Peptide inhibitors were administered orally two or three times a day at various dosages and were provided in drinking water at various dosages, for 8 days starting approximately 24 hours (Day −1) prior TNBS inoculation.
# Levels of a number of inflammatory biomarkers were examined in the colons. The distal colon tissue samples, designated for protein expression analysis, were flash frozen after collection. For protein extraction, the samples were thawed, weighed and homogenized in the extraction buffer (PBS pH 7.2 supplemented with Protease Inhibitors, 3× volume:weight). The homogenates were centrifuged at 13 krpm at 4° C. for 15 minutes, a total of two times to remove the debris. The supernatants were saved in multiple aliquots in −80° C. and subsequently used for protein expression analysis on ELISA. The total protein in each sample was quantified using BCA assay. MPO, IL-10, IL-6, IL-17A and IL-22 biomarker protein expression in the distal colon samples was analyzed using commercially available rat ELISA kits.
# Sprague-Dawley rats [3] = test: IL-23-directed cytokines in distal colon of 5% DSS-induced acute colitis rats, qRT-PCR and ELISA (Example E4); type: in vivo, rat
# Method: In the second model, acute colitis was induced in Sprague-Dawley rats by ad libitum access to 5% DSS dissolved in drinking water every day until analysis at day five. The animals were grouped into sham+vehicle (PO TID), DSS+vehicle (PO TID), and DSS+Peptide 993 treatment at 61 mg/kg/day (PO TID+in drinking water).
# Expression of genes encoding IL-17A, IL-17F, and IL-22 was quantified by quantitative reverse transcription polymerase chain reaction (qRT-PCR), and production of IL-22 protein was quantified by ELISA. Relative expression was normalized to that of HPRT1; and values were determined as geometric mean±95% confidence interval. Protein concentration is shown as mean±SD. Statistical significance was assessed by One-way ANOVA with post-hoc Dunnett's vs. Vehicle control: *p≤0.05; **p≤0.01; ***p≤0.001; ns, not significant.
# Sprague-Dawley rats [4] = test: Serum LCN2, TNBS rat colitis model, ELISA (Example E2); type: in vivo; settings: per ml of serum, vs vehicle
# Method: The animals were grouped into sham, vehicle, and Peptide 993 treatment at 31 mg/kg/day. Feces were collected from the distal colon of rats and were immediately frozen at the time of necropsy. The feces samples were weighed and homogenized in extraction buffer (PBS pH 7.4 containing Pierce Protease Inhibitors, 3× volume:weight). The samples were incubated on ice for 90 minutes, with intermittent vortexing for complete homogenization. After centrifugation at 3000 g at 4 C, the homogenates were transferred to fresh tubes and subjected to another centrifugation at 14000 g at 4 C. The cleared supernatants were saved in multiple aliquots and stored at −80 C until analysis.
# The serum samples were immediately frozen and thawed only once before use in the ELISA. For LCN2, the samples were diluted at different ratios with assay dilution buffer to capture the large variation in concentration amongst the different groups. The dilution ratios used were 1:10 (for sham), 1:1000, 1:2000 and 1:10000 (vehicle and Peptide 993). Fecal Lipocalin2(LCN2)/NGAL analysis:
# Serum samples were analyzed for LCN2 concentration using the above ELISA protocol. Serum samples were used at dilutions ranging from 1:[…] to ensure that the measurements were within the range and sensitivity of the kit. […] Statistical analysis was performed using 1-Way-ANOVA with Dunnetts's multiple comparison.
# [5] = protein by ELISA, vs vehicle treated controls, Peptide 993 65 mg/kg/day
# [6] = protein by ELISA, vs vehicle treated controls, Peptide 993 65 mg/kg/day, Peptide 980 37 mg/kg/day
# [7] = DSS rats, 61 mg/kg/day oral, distal colon, normalized to HPRT1
smiles,measurement,setting,value
"CC(=O)NC(CCCNC(=N)N)C(=O)NC1CCSCC(C(=O)NC(Cc2ccc(OCCN)cc2)C(=O)NC(Cc2ccc3ccccc3c2)C(=O)NC2(C(=O)NC(CCC(=O)O)C(=O)NC(CC(N)=O)C(=O)NC(CC(N)=O)C(N)=O)CCOCC2)NC(=O)C(CCC(N)=O)NC(=O)C(Cc2c[nH]c3ccccc23)NC(=O)C(C(C)O)NC(=O)C(CCC(N)=O)NC1=O (stereo not drawn) [Peptide 993, Ac-[(D)-Arg]-cyclo[[Abu]-QTWQC]-[Phe[4-(2-aminoethoxy)]]-[2-Nal]-[4-amino-4-carboxy-tetrahydropyran]-ENN-NH2]","S100A8 expression, distal colon",Sprague-Dawley rats [1],"not statistically significant, however there was a marked reduction in the average expression of the group"
same,"relative expression of CLDN8, distal colon",Sprague-Dawley rats [1],increase
same,"relative expression of LCN2, distal colon",Sprague-Dawley rats [1],significant reduction
same,"IL-1β gene expression level, distal colon","Sprague-Dawley rats [2]; data not shown, trend similar to the protein reduction",but not IL-1β
same,IL-1β level in colon,Sprague-Dawley rats [2]; [5],reduced
same,IL-6 level in colon,Sprague-Dawley rats [2]; [5],reduced
same,IL-17A level in colon,Sprague-Dawley rats [2]; [5],reduced
same,IL-22 level in colon,Sprague-Dawley rats [2]; [6],reduced
same,MPO level in colon,Sprague-Dawley rats [2]; [6],reduced
same,abundance of IL-22 protein,"Sprague-Dawley rats [3]; DSS rats, 61 mg/kg/day oral, distal colon, ELISA",significant decreases
same,relative expression of gene encoding IL-17A,Sprague-Dawley rats [3]; [7],significant decreases
same,relative expression of gene encoding IL-17F,Sprague-Dawley rats [3]; [7],significant decreases
same,relative expression of gene encoding IL-22,Sprague-Dawley rats [3]; [7],significant decreases
same,mRNA and/or protein levels of IL-23-directed cytokines in the distal colons,"Sprague-Dawley rats [3]; DSS-treated rats, 61 mg/kg/day PO TID + in drinking water, day five, vs vehicle",significant reduction
same,serum LCN2 concentration,Sprague-Dawley rats [4],statistically significant decrease
